Reference: ChEMBL document CHEMBL1147818, “1,1'-Xylyl bis-1,4,8,11-tetraaza cyclotetradecane: a new potential copper chelator agent for neuroprotection in Alzheimer's disease. Its comparative effects with clioquinol on rat brain copper distribution” (Bioorg Med Chem Lett, 2006)

Legend:
[1] = tested on: Rattus norvegicus; assay: Decrease in copper concentration in Wistar rat CSF at 5 mg/kg, iv after 1 hr relative to control; assay type: functional; set-up: scale not given: the % may be the effect or the level left
[2] = tested on: Rattus norvegicus; assay: Distribution of copper per 100 ml of Wistar rat blood at 5 mg/kg, iv after 1 hr; assay type: ADME, organism-based; set-up: dose 5 mg/kg, route intravenous; details: in vivo

| Structure (SMILES) | Activity [1] [%] | Ct [2] [µg] |
| --- | --- | --- |
| Oc1c(I)cc(Cl)c2cccnc12 [CLIOQUINOL] | 70 | 126 |
| CC(C)(S)[C@@H](N)C(=O)O [PENICILLAMINE] |  | 135 |
| c1cc(CN2CCCNCCNCCCNCC2)ccc1CN1CCCNCCNCCCNCC1 [PLERIXAFOR] | 70 | 142 |
